Measured values reported in paper PMC9149975, “The diaryl-imidazopyridazine anti-plasmodial compound, MMV652103, exhibits anti-breast cancer activity” (EXCLI Journal, 2022).

What was measured:
PIK3CG = target: T1, PIK3CG (Homo sapiens, UniProt P48736); experiment: ADP-Glo lipid kinase assay, PIK3CG; type: biochemical; details: 10 µM compound
T1 construct: purchased Carna Biosciences Inc; Invitrogen Corporation

PI4K2A = target: T2, PI4K2A (Homo sapiens, UniProt Q9BTU6); experiment: ADP-Glo lipid kinase assay, PI4K2A; type: biochemical; details: 10 µM compound
T2 construct: purchased Carna Biosciences Inc; Invitrogen Corporation

PIK3CD/ PIK3R1 = target: T3, PIK3CD/ PIK3R1 (Homo sapiens, UniProt O00329); experiment: ADP-Glo lipid kinase assay, PIK3CD/PIK3R1; type: biochemical; details: 10 µM compound
T3 construct: purchased Carna Biosciences Inc; Invitrogen Corporation

MCF7 tumors = experiment: Chick embryo CAM xenograft: tumor weight and metastasis; type: in vivo; details: every 48 h E10-E16, weighed E18
Procedure: All studies and procedures were conducted with prior approval of the Animal Ethics Committee of the University of Cape Town (FHS AEC REF NO:016/025) in accordance with the South African National Standard (SANS 10386:008) for the Care and Use of Animals for Scientific Purposes (SABS, 2015[71]), and guidelines from the Department of Health (2015[21]). Fertilized White Leghorn eggs were incubated at 37.5 °C with 50 % relative humidity for 9 days. At stage E9, the chorioallantoic membrane (CAM) was dropped by drilling a small hole through the eggshell into the air sac and a 1 cm^2 window was cut in the eggshell above the CAM. Cultured MCF7 cells were detached with trypsin, washed with complete medium and suspended in PBS. An inoculum of MCF7 cells was grafted onto the CAM of each E9 egg (21 eggs were used for each condition) and at E10, tumors were detectable. MCF7 tumors were treated every 48 h (E10, E12, E14, E16) by dropping 100 μl of vehicle (0.25 % DMSO in PBS), a reference compound (Paclitaxel), or MMV652103, onto the tumour. At E18 the upper portion of the CAM was removed, transferred to PBS and the tumors cut away from normal CAM tissue and weighed. A one-way ANOVA analysis with post-tests was done. In parallel, a 1 cm^2 portion of the lower CAM was collected to evaluate the number of metastatic cells. The relative amount of metastasis was calculated as follows: Tumor cells were grafted onto the upper chorioallantoic membrane (CAM) and during metastasis the cells invade the epithelium and basement membrane of the upper CAM and move through connective tissue into the vasculature into the lower CAM. The cells in the lower CAM are then harvested and genomic DNA is extracted and analyzed by qPCR with specific primers for Alu sequences which are only found in higher primates i.e. it allows for the distinction between human tumor cells and the host chick cells. Statistical analysis was directly performed on data from the Bio-Rad CFX Manager 3.1 software.

PIK3CB/ PIK3R1 = target: T4, PIK3CB/ PIK3R1 (Homo sapiens, UniProt P42338); experiment: ADP-Glo lipid kinase assay, PIK3CB/PIK3R1; type: biochemical; details: 10 µM compound
T4 construct: purchased Carna Biosciences Inc; Invitrogen Corporation

PIK3CA/ PIK3R1 = target: T5, PIK3CA/ PIK3R1 (Homo sapiens, UniProt P42336); experiment: ADP-Glo lipid kinase assay, PIK3CA/PIK3R1; type: biochemical; details: 10 µM compound
T5 construct: purchased Carna Biosciences Inc; Invitrogen Corporation

PIK3C2G = target: T6, PIK3C2G (Homo sapiens, UniProt O75747); experiment: ADP-Glo lipid kinase assay, PIK3C2G; type: biochemical
T6 construct: purchased Carna Biosciences Inc; Invitrogen Corporation
Procedure: A non-radiometric kinase assay (ADP-Glo™ Assay, Promega, Madison, Wi, USA) was used for measuring the kinase activity of the 2 lipid kinases, phosphatidylinositol 4-kinase beta (encoded by the PI4KB gene) and phosphatidylinositol-4-Phosphate 3-Kinase Catalytic Subunit Type 2 Gamma (encoded by the PIK3C2G gene). All kinase assays were performed in 96-well half-area microtiter plates from Greiner Bio-One (Frickenhausen, Germany) in 25 µl reaction volumes. […] In addition, the assay for PI4KB contained 3 mM MnCl2 and the assay for PIK3C2G contained 3 mM MgCl2. Kinases from external vendors (Carna Biosciences Inc.; Invitrogen Corporation; Millipore Corporation) were expressed, purified and quality-controlled by virtue of the vendors readings. The reaction cocktails were incubated at 30 °C for 60 min. The reaction was stopped with 25 µl ADP-Glo reagent per well. Plates were incubated for 40 min at RT, followed by the addition of 50 µl kinase detection reagent per well and incubation for 60 min at RT. Signal was determined with a microplate luminescence reader (Victor, Perkin Elmer). […]
For each kinase, the median value of the counts per second (cps) of three wells with complete reaction cocktails, but without kinase, was defined as "low control" (n=3). […] The residual activity (in %) for each well of each row of a particular plate was calculated by using the following formula: […]

T47D cells [1] = experiment: Clonogenic survival assay, T47D; type: cell-based, human; details: IC50, 2 x IC50, 4 x IC50 for 24 h
Procedure: Cells were pre-cultured and treated with the indicated concentrations of MMV652103 for 24 h, washed, collected and re-plated, in drug-free medium, at 1000-2000 cells per well in 35 mm dishes, in triplicate. After 10-21 days the surviving cells were fixed with 3:1 methanol: acetic acid and stained with 0.5 % crystal violet (Sigma-Aldrich, USA) in 100 % methanol. Quantification of colonies was performed using ImageJ 1.5J8 software (USA) (Schneider et al., 2012[73]). Number of colonies was determined for each drug concentration and expressed as a percentage of the vehicle treated control.

T47D cells [2] = experiment: Scratch motility assay, T47D; type: cell-based, human; details: IC50 and 2 x IC50; 3, 6, 9 h
Procedure: Cells were grown to 100 % confluence in 12-well tissue culture plates and the following day a sterile 2 µl pipette tip was used to make a vertical scratch in the cell monolayer of each well and the cells treated with mitomycin C (M4287; Sigma Aldrich) at a final concentration of 10 μg/ml to inhibit proliferation. Cells were subsequently treated with MMV652103 or vehicle and imaged at 0, 3, 6 and 9 h post wound formation and ImageJ v1.50i software was used to calculate the area of the scratch (Schneider et al., 2012[73]). The total areas migrated was determined by subtracting the area for a specific time point from the area measured at 0 h.

T6 sequence (O75747 whole entry): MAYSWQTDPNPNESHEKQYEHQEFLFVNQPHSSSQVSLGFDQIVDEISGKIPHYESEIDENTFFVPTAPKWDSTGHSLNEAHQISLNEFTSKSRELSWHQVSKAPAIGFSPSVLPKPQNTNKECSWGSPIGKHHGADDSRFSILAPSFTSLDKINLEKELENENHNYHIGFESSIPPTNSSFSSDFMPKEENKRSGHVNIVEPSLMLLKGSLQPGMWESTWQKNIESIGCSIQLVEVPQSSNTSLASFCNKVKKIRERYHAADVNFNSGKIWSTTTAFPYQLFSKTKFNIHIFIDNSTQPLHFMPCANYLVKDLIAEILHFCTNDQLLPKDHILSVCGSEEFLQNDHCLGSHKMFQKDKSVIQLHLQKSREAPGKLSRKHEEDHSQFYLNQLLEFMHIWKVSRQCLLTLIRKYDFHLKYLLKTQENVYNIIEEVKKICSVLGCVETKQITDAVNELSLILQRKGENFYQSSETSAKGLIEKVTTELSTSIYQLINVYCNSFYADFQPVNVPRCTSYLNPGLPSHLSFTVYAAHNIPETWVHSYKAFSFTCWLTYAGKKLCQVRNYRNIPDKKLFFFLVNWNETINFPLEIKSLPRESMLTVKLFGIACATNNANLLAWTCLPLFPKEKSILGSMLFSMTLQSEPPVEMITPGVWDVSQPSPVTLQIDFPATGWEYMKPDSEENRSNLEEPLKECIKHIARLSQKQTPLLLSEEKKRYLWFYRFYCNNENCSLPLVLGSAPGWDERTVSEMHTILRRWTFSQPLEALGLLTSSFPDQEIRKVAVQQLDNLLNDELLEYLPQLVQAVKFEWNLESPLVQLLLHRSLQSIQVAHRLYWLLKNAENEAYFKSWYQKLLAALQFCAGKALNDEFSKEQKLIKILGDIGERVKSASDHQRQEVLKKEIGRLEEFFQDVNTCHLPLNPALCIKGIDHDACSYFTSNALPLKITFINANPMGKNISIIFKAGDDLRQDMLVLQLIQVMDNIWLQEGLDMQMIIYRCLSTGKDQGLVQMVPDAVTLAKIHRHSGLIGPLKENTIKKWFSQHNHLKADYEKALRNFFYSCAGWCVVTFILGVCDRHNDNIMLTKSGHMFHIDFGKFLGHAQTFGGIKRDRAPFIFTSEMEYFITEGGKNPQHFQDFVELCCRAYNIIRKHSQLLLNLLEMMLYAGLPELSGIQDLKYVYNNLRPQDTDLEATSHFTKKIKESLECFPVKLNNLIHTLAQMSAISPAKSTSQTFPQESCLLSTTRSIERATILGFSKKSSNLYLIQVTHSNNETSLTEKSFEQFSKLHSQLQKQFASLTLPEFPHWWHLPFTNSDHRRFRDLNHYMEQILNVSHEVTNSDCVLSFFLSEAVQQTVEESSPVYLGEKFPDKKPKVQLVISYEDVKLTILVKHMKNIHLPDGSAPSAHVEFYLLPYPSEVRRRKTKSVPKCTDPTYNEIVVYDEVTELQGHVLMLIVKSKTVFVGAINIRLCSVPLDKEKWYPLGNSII
T2 sequence (Q9BTU6 whole entry): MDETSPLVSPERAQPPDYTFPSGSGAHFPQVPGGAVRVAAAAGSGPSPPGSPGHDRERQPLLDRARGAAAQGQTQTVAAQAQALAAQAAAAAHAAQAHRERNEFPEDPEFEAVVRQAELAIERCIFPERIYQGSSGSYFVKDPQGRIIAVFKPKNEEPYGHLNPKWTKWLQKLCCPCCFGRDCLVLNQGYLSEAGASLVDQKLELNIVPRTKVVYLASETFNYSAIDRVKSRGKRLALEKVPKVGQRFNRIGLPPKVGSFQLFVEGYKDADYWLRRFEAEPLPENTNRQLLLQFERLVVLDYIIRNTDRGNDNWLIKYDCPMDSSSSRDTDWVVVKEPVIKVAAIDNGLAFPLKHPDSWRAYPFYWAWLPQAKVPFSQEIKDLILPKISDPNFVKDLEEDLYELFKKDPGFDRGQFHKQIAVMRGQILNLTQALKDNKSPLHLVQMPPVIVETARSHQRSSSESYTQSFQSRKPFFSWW
T5 sequence (P42336 whole entry): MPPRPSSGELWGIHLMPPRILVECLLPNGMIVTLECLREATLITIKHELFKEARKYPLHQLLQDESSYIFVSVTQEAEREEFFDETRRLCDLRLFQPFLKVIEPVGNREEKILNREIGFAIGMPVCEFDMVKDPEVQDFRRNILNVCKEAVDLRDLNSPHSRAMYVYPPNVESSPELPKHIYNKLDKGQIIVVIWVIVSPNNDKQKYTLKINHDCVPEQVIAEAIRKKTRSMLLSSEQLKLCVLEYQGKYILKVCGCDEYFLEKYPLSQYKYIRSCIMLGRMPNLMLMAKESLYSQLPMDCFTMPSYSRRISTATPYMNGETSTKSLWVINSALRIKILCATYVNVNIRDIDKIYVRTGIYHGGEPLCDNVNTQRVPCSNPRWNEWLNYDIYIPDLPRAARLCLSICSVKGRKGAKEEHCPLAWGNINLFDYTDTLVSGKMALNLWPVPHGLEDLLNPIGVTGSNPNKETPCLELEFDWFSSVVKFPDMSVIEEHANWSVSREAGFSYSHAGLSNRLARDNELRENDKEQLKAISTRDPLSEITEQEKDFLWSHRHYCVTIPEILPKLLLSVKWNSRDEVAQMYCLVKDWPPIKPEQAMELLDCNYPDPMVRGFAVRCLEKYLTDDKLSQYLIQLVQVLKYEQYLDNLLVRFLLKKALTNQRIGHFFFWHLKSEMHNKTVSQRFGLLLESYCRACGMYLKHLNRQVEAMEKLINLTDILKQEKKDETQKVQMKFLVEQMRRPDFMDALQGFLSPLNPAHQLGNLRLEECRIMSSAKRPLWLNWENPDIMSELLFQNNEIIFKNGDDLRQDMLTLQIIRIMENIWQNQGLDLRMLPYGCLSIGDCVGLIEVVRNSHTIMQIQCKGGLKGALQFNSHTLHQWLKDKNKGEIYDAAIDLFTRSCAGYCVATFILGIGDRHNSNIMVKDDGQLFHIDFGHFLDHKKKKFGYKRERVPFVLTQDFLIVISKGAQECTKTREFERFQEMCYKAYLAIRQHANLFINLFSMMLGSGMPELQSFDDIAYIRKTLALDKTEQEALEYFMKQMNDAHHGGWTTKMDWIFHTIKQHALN
T5 sequence (P27986 whole entry partner): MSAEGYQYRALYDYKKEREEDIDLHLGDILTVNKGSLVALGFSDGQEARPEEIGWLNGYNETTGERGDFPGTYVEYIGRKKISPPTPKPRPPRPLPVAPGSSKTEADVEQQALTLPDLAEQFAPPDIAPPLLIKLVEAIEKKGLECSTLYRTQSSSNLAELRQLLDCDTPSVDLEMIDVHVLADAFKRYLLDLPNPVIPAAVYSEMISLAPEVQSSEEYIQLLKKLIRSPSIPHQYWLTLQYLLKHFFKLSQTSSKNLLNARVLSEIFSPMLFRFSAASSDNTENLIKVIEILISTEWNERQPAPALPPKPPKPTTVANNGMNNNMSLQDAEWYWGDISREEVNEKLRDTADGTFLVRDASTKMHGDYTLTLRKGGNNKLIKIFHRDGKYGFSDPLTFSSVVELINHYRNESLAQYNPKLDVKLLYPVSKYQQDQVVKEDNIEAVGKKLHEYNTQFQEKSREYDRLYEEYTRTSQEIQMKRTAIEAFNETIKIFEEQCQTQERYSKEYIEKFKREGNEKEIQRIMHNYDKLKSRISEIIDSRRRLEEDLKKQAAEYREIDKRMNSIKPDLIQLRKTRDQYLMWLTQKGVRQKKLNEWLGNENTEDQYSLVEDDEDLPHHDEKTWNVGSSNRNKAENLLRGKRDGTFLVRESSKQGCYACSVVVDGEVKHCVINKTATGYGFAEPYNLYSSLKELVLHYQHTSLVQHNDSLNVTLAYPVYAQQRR
T1 sequence (P48736 whole entry): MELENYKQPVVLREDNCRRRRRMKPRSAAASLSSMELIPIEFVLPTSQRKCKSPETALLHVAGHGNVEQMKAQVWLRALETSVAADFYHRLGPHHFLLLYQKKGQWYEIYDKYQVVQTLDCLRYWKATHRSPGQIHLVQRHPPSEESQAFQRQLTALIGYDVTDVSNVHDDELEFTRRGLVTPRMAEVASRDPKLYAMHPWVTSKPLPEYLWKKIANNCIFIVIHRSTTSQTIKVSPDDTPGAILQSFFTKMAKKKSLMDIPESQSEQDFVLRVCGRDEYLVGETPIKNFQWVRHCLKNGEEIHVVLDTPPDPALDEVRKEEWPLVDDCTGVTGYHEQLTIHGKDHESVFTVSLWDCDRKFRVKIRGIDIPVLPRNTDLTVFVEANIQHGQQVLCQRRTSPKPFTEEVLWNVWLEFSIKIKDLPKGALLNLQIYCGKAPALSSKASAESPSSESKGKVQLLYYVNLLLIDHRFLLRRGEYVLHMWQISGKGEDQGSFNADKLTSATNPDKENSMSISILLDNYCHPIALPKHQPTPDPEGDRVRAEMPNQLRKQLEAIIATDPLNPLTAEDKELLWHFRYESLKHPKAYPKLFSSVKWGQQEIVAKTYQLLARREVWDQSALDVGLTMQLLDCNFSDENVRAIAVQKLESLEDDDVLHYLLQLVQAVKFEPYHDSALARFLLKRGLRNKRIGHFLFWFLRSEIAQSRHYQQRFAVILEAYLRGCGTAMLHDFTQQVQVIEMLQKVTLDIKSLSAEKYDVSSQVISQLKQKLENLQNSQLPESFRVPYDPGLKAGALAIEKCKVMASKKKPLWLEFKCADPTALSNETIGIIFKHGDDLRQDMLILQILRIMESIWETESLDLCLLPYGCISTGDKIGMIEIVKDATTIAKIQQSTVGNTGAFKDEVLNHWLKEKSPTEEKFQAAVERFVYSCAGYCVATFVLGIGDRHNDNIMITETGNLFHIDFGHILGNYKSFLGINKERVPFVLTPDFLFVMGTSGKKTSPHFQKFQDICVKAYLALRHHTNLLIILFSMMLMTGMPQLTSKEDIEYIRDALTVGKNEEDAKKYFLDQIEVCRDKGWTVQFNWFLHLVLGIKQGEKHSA

CS(=O)(=O)c1ccc(-c2cnc3ccc(-c4cccc(S(C)(=O)=O)c4)nn23)cc1 [MMV652103]
remaining activity at 10 µM (PIK3CG): 2%
remaining activity at 10 µM (PI4K2A): 42%
remaining activity at 10 µM (PIK3CD/ PIK3R1): 3%
tumor weight reduction (MCF7 tumors; 4.4 μM): 34.89%
tumor weight reduction (MCF7 tumors; 22 μM): 41.71%
remaining activity at 10 µM (PIK3CB/ PIK3R1): 19%
remaining activity at 10 µM (PIK3CA/ PIK3R1): 3%
remaining activity at 10 µM (PIK3C2G; 10 µM compound): 4%
IC50 (PIK3C2G; ADP-Glo): 85 nM
number of T47D cell colonies (T47D cells [1]): dose-dependent reduction
T47D cell migration (T47D cells [2]): significant reduction
